Assay results taken from patent US8633177B2, “Nitroxyl (HNO) releasing compounds and uses thereof in treating diseases” (The United States of America, as represented by the …, priority 2010, dated 2014).

Key:
[1] = NO release measured with NO specific electrode, 2% serum; type: physicochemical; details: 100 μM; for NO release: 2% serum; for [NO]pA: phosphate buffer pH 7.4, 2% serum
Procedure: The release of NO was evaluated using an NO specific electrode. The NO electrode was stabilized in phosphate buffer pH 7.4 containing 2% serum. Compounds 4 and 8 in DMSO were added and the NO signal was measured. The experiment was repeated in the presence of 1 mM sodium ferricyanide.
Since there is no direct method for detection of HNO, 1 mM ferricyanide solution was used, which converts HNO to NO that can then be detected using NO electrode. K3Fe(CN)6+HNO ? NO

HUVECs = test: MTT assay, normal endothelial cell line HUVECs; type: cell-based
breast cancer cells = test: MTT cell survival, breast cancer cells (cell line not given); type: cell-based, human; details: 48 h of treatment, cell line not named
Procedure: The effect of NONO-aspirin on cell proliferation was studied using an MTT assay. The effect of DEA/NO-ASA, IPA/NO-ASA, aspirin, IPA/NO and DEA/NO was measured using the MTT assay. Cells were plated at a concentration of 8,000-10,000 cells per well in a 96 well plate and grown overnight. Cells were treated with different concentrations of the compounds and controls for 48 h. After 48 h, a solution of 5 mg/ml MTT was added to each well and incubated for 1 h. Then the media was removed from each well and 100 uL DMSO was added to each well and the absorbance was read at 550 nm. Inhibition of growth with different treatments was reported as percentage of corresponding control.

[2] = system: MB-231 breast cancer cell lines; test: DAF assay of cell membrane penetration, MB-231; details: MB-231 cell line
Procedure: Intracellular NO/HNO release from the derivatized NSAIDs was determined using 4-amino-5-methylamino-2′,7′-difluorofluoroescein diacetate (DAF-FM diacetate) as in Example 9.

caspase-3 = test: Caspase-3 fluorescence assay, MDA-MB-231; type: cell-based, human; details: 12 h
Procedure: The caspase-3 activity in the presence of IPA/NO-ASA and DEA/NO-ASA was measured using caspase-3 fluorescence assay kit (Cat No. 10009135, Cayman Chemical). Cells were plated at a concentration of 50,000 cells per well in a 96 well plate and grown overnight. Then the cells were treated with different concentrations of the compounds and controls for 12 h. After 12 h, the plate was centrifuged at 800 g and the media was removed by aspiration. 100 μL of lysis buffer was added to each well and the plate was incubated for […] at room temperature. 100 μL of a caspase-3 substrate solution was added to each well and incubated for 30 min after which the fluorescence was read at excitation of 485 nm and emission of 535 nm.

[3] = biological target: glyceraldehyde-3-phosphate dehydrogenase (GAPDH) (Homo sapiens, UniProt P04406); test: GAPDH activity, MDA-MB-231; type: cell-based; parameters: endogenous in cells; host or cells: MDA-MB-231, MDA-MB-468, MCF-7, MCF-10A; details: MDA-MB-231, 100 μM
Procedure: Cells were plated at a concentration of 30,000 cells per well and grown overnight. Cells were treated with 100 μM IPA/NO-aspirin and DEA/NO-aspirin for 1, 3, and 6 h after which 200 μL of KDalert lysis buffer was added to each well. The plate was incubated at 4° C. for 20 min to lyse the cells. 10 μL of cell lysate was transferred to a clean 96 well plate and 90 μL of KDalert mastermix was added to each well and the fluorescence was measured at excitation of 540 nm and emission of 570 nm.

E-cadherin = E-cadherin expression in MDA-MB-231 cells; type: cell-based, human; details: MDA-MB-231, 100 μM, mRNA and protein level
Procedure: MDA-MB-231 cells were plated at a concentration of 500,000 cells per plate on 60 mm plate and grown overnight. They were then treated with 100 μM of IPA/NO-aspirin, DEA/NO-aspirin, IPA/NO, DEA/NO and aspirin for 1 to 24 h.

Prostaglandin E2 = test: PGE2 production, prostaglandin E2 EIA kit; type: cell-based; details: 24 h
Procedure: Cells were plated at a concentration of 50,000 cells per well and grown overnight. Then 25, 50, and 100 μM of DMSO, IPA/NO-aspirin, and DEA/NO-aspirin were added to the corresponding well for 24 h and incubated at 37° C. The supernant was then analyzed for PGE2 activity using prostaglandin E2 EIA kit (Cayman Cat No. 514010).

p53 = test: Phosphorylation of p53 in MB-231 cells; type: cell-based, human; details: 50 μM IPA/NO-aspirin, 75 μM DEA/NO-aspirin
Procedure: MB-231 cells were plated at a concentration on 1E6 and grown for 24 h. Then the cells were serum starved overnight followed by treatment with 50 μM and 75 μM, respectively, of IPA/NO-aspirin and DEA/NO-aspirin for 3, 6, 12 h. The cells were harvested and lysed with lysis buffer (cell signaling). Cell lysate was centrifuged at 13,000 rpm for 20 min and the supernatant was transferred to fresh tube. Protein ([…]) of protein was loaded in each lane on a 15% tris-glycine gel and electrophoresis was completed at 120V.

MCF-10A = test: MTT cell survival, MCF-10A; type: cell-based; details: MCF-10A normal mammary epithelial cell line, 48 h
Procedure: MDA-MB-231, MCF-7 and MDA-MB-468, human breast carcinoma cell lines and MCF-10A, breast […] (American Type Culture Collection, Manassas, Va.) were grown as monolayers in RPMI 1640 supplemented with 10% FCS (Hyclone), penicillin (50 units/ml), streptomycin ([…]; Life Technologies, Inc., Grand Island, N.Y.) and endothelial growth media (Lonanza) respectively. Cells were seeded at a density of 1×10^6 cells/100-cm^2 culture dish and incubated at 37° C. in 5% CO2 and 80% relative humidity. Single-cell suspensions were obtained by trypsinization (0.05% trypsin/EDTA), and cells were counted using a Beckman cell counter.
1000× stock solutions aspirin, of a DEA/NO-ASA, and IPA/NO-ASA were made in DMSO and final concentration in the media or PBS was adjusted to 0.1% DMSO.
The effect of NONO-aspirin on cell proliferation was studied using an MTT assay. The effect of DEA/NO-ASA, IPA/NO-ASA, aspirin, IPA/NO and DEA/NO was measured using the MTT assay. Cells were plated at a concentration of 8,000-10,000 cells per well in a 96 well plate and grown overnight. Cells were treated with different concentrations of the compounds and controls for 48 h. After 48 h, a solution of 5 mg/ml MTT was added to each well and incubated for 1 h. Then the media was removed from each well and 100 uL DMSO was added to each well and the absorbance was read at 550 nm. […]

Sequence of glyceraldehyde-3-phosphate dehydrogenase (GAPDH) (P04406 whole entry): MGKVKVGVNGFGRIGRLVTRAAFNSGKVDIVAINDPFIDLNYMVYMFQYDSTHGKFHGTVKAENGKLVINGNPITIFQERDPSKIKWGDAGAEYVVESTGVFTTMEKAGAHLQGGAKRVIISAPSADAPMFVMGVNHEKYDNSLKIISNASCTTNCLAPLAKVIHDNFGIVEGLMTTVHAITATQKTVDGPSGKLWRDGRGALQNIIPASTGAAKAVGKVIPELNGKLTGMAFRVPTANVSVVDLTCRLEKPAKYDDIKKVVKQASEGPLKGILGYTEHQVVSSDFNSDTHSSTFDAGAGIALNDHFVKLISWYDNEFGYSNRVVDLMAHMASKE

Row | Structure (SMILES) | NO release [1] | [NO]pA ([1]; +Ferricyanide 1 mM) [pA] | [NO]pA ([1]; without ferricyanide) [pA] | cell death in MTT assay (HUVECs) | IC50 (breast cancer cells) [µM] | cell membrane penetration [2] | Caspase-3 Activity (caspase-3; MDA-MB-231, 25 μM) [U/mL] | Caspase-3 Activity (caspase-3; MDA-MB-231, 50 μM) [U/mL] | Caspase-3 Activity (caspase-3; MDA-MB-231, 100 μM) [U/mL] | GAPDH Activity ([3]; 1 h) [U/mL] | GAPDH Activity ([3]; 3 h) [U/mL] | GAPDH Activity ([3]; 6 h) [U/mL] | E-cadherin level (E-cadherin) | Prostaglandin E2 (Prostaglandin E2; 25 μM) [pg/mL] | Prostaglandin E2 (Prostaglandin E2; 50 μM) [pg/mL] | Prostaglandin E2 (Prostaglandin E2; 100 μM) [pg/mL] | time point of activation of p53 phosphorylation (p53) [h] | cytotoxicity (MCF-10A)
1 | CC(=O)Oc1ccccc1C(=O)OCON=[N+]([O-])NC(C)C [IPA/NO-aspirin, O^2-(Acetylsalicyloyloxymethyl)-1-(N-isopropylamino)-diazen-1-ium-1,2-diolate] | significantly lower NO production | 2100 | 1000 | No significant cell death | 50 | penetrated cell membranes | 0.40 | 0.48 | 0.55 | 0.120 | 0.070 | 0.050 | did not show any significant change | 17 | 14 | 13 | 10 | none of the compounds showed any significant cytotoxicity
2 | CCN(CC)[N+]([O-])=NOCOC(=O)c1ccccc1OC(C)=O [DEA/NO-aspirin, O^2-(Acetylsalicyloyloxymethyl)-1-(N,N-Diethylamino)-diazen-1-ium-1,2-diolate] | readily released NO | 5000 | 4600 | No significant cell death | 75 | penetrated cell membranes | 0.25 | 0.24 | 0.31 | 0.150 | 0.160 | 0.150 | increased E-cadherin expression | 21 | 38 | 36 | 1 | none of the compounds showed any significant cytotoxicity
